# Source: the kinase profiling compilation of Christmann-Franck et al. (2016)
# Experiments:
# Test in all cases: KINOMEscan competition binding
# AAK1 (human) = AAK1 (human) (UniProt Q2M2I8)
# SLK (human) = SLK (human) (UniProt Q9H2G2)
# MYO3A (human) = MYO3A (human) (UniProt Q8NEV4)
# [1] = system: PIK3CA (human), P42336 [C420R]
# LRRK2 (human) = LRRK2 (human) (UniProt Q5S007)
# [2] = system: ABL1 (human), P00519 [M351T]
# MUSK (human) = MUSK (human) (UniProt O15146)
# MAPKAPK2 (human) = MAPKAPK2 (human) (UniProt P49137)
# CAMK2A (human) = CAMK2A (human) (UniProt Q9UQM7)
# CAMK2A (human), sequence (Q9UQM7 whole entry, looked up): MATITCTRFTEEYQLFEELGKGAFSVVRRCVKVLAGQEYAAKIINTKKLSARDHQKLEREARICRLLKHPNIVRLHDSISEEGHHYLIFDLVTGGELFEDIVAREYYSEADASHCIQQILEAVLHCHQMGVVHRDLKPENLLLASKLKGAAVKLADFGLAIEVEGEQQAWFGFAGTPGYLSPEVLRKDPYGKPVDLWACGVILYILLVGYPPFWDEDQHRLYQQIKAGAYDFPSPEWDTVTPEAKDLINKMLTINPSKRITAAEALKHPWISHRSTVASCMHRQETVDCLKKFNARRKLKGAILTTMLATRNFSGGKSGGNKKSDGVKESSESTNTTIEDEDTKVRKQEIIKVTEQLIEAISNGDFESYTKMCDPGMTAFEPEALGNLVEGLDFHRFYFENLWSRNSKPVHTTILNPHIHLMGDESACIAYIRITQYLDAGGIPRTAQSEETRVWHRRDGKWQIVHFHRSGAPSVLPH
# NEK9 (human) = NEK9 (human) (UniProt Q8TD19)
# MAPK9 (human) = MAPK9 (human) (UniProt P45984)
# [3] = system: KIT (human), P10721 [V559D/T670I]
# CSNK2A2 (human) = CSNK2A2 (human) (UniProt P19784)
# DMPK (human) = DMPK (human) (UniProt Q09013)
# CDC42BPG (human) = CDC42BPG (human) (UniProt Q6DT37)
# ICK (human) = ICK (human) (UniProt Q9UPZ9)
# MAPK1 (human) = MAPK1 (human) (UniProt P28482)
# [4] = target: JAK2 JH1 catalytic (human) (UniProt O60674)
# CLK2 (human) = CLK2 (human) (UniProt P49760)
# RPS6KA3 KD1 (human) = RPS6KA3 KD1 (human) (UniProt P51812)
# FYN (human) = FYN (human) (UniProt P06241)
# FYN (human), sequence (P06241 whole entry, looked up): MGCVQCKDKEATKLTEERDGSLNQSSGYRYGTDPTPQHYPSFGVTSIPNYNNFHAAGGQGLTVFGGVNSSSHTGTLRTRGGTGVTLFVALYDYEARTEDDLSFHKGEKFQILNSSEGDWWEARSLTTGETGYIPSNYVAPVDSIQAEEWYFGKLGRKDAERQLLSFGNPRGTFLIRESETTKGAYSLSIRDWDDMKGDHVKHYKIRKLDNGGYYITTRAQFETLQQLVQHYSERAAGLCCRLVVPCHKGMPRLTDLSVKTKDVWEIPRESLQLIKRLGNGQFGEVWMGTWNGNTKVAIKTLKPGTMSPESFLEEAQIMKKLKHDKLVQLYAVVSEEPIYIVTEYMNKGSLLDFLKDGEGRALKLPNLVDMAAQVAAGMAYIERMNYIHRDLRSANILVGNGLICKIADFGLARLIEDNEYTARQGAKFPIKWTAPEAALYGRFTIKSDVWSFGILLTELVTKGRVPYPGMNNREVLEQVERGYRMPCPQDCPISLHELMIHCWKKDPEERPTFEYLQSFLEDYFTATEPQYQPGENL
# MAP3K2 (human) = MAP3K2 (human) (UniProt Q9Y2U5)
# STK16 (human) = STK16 (human) (UniProt O75716)
# STK16 (human), sequence (O75716 whole entry, looked up): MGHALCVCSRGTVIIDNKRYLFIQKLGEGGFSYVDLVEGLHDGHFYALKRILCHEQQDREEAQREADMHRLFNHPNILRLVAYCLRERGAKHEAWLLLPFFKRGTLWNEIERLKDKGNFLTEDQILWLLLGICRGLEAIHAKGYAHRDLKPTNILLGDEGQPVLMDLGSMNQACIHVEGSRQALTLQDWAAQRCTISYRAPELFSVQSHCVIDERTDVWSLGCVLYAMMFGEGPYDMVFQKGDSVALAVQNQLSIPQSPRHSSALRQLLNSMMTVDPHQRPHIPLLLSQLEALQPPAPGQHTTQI
# PIP5K1A (human) = PIP5K1A (human) (UniProt Q99755)
# ACVRL1 (human) = ACVRL1 (human) (UniProt P37023)
# MAP3K3 (human) = MAP3K3 (human) (UniProt Q99759)
# CAMK2D (human) = CAMK2D (human) (UniProt Q13557)
# CAMKK1 (human) = CAMKK1 (human) (UniProt Q8N5S9)
# STK3 (human) = STK3 (human) (UniProt Q13188)
# NLK (human) = NLK (human) (UniProt Q9UBE8)
# MYLK (human) = MYLK (human) (UniProt Q15746)
# TNIK (human) = TNIK (human) (UniProt Q9UKE5)
# BRSK2 (human) = BRSK2 (human) (UniProt Q8IWQ3)
# LCK (human) = LCK (human) (UniProt P06239)
# CSNK2A1 (human) = CSNK2A1 (human) (UniProt P68400)
# EPHB4 (human) = EPHB4 (human) (UniProt P54760)
# PDPK1 (human) = PDPK1 (human) (UniProt O15530)
# EPHB3 (human) = EPHB3 (human) (UniProt P54753)
# FER (human) = FER (human) (UniProt P16591)
# TBK1 (human) = TBK1 (human) (UniProt Q9UHD2)
# GRK4 (human) = GRK4 (human) (UniProt P32298)
# GRK4 (human), sequence (P32298 whole entry, looked up): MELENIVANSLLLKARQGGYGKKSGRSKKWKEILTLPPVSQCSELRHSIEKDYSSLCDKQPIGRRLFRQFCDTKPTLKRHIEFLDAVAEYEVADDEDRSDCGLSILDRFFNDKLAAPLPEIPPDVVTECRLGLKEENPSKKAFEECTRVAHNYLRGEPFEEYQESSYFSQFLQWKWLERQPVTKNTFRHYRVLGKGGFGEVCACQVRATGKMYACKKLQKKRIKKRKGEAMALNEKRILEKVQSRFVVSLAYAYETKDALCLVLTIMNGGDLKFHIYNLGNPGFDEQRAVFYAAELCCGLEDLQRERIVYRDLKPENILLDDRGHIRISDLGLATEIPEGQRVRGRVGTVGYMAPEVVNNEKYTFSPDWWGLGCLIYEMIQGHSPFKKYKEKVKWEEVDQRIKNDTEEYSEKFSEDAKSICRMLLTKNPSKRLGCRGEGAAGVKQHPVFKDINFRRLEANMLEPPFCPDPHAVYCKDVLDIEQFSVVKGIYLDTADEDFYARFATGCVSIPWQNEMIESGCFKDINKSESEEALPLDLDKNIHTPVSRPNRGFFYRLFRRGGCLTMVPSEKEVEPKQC
# [5] = system: KIT (human), P10721 [V559D/V654A]
# AAK1 (human), sequence (Q2M2I8 whole entry, looked up): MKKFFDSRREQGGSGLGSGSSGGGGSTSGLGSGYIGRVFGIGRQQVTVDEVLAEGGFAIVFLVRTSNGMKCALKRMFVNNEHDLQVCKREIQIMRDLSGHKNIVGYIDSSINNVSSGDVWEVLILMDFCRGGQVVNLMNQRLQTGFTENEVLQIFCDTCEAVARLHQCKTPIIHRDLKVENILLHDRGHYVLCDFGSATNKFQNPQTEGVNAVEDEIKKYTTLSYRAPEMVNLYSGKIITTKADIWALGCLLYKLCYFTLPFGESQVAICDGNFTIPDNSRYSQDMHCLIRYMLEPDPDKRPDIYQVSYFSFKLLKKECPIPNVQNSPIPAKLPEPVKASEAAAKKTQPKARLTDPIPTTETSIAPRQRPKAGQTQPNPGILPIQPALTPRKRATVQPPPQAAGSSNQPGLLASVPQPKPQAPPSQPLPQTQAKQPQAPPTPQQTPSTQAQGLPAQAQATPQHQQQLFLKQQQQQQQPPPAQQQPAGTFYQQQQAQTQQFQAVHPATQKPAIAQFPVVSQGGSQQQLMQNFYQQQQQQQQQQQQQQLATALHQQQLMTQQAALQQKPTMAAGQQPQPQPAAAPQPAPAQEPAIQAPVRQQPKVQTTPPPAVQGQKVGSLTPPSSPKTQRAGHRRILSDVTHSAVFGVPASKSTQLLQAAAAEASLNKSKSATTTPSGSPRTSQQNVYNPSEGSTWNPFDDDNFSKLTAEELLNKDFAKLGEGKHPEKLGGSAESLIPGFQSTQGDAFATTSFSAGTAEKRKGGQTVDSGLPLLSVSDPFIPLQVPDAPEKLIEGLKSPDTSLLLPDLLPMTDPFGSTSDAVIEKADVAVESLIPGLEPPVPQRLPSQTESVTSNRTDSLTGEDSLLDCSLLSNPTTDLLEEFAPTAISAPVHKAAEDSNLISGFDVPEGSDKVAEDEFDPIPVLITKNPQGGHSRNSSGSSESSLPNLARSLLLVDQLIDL
# PIK3CA (human), P42336 [C420R], sequence (P42336 whole entry C420R, looked up): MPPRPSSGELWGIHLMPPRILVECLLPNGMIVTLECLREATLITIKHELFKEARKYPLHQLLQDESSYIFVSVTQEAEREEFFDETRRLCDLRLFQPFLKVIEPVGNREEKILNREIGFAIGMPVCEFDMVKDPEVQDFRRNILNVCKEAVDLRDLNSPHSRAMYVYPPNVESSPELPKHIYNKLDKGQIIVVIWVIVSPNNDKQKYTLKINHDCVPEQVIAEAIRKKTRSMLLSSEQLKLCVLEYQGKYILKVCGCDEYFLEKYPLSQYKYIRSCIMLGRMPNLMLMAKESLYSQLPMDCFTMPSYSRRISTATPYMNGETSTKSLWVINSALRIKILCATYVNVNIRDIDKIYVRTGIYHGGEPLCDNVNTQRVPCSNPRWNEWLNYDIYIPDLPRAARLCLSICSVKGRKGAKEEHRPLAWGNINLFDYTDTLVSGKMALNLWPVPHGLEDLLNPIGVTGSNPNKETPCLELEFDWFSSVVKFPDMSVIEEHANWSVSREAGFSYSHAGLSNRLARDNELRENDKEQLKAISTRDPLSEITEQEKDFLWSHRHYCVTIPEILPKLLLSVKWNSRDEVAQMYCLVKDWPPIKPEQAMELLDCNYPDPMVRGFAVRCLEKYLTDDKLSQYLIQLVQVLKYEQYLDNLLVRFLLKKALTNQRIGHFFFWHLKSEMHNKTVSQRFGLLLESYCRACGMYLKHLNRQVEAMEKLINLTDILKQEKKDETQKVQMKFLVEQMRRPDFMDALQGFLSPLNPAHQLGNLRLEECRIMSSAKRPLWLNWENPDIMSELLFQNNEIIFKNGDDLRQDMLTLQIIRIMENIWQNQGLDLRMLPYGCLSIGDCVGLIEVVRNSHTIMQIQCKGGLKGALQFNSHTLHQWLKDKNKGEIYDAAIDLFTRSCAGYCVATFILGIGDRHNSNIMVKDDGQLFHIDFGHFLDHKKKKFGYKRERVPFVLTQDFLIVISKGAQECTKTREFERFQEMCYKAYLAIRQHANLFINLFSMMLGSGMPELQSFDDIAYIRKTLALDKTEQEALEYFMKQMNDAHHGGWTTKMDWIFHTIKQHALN
# MUSK (human), sequence (O15146 whole entry, looked up): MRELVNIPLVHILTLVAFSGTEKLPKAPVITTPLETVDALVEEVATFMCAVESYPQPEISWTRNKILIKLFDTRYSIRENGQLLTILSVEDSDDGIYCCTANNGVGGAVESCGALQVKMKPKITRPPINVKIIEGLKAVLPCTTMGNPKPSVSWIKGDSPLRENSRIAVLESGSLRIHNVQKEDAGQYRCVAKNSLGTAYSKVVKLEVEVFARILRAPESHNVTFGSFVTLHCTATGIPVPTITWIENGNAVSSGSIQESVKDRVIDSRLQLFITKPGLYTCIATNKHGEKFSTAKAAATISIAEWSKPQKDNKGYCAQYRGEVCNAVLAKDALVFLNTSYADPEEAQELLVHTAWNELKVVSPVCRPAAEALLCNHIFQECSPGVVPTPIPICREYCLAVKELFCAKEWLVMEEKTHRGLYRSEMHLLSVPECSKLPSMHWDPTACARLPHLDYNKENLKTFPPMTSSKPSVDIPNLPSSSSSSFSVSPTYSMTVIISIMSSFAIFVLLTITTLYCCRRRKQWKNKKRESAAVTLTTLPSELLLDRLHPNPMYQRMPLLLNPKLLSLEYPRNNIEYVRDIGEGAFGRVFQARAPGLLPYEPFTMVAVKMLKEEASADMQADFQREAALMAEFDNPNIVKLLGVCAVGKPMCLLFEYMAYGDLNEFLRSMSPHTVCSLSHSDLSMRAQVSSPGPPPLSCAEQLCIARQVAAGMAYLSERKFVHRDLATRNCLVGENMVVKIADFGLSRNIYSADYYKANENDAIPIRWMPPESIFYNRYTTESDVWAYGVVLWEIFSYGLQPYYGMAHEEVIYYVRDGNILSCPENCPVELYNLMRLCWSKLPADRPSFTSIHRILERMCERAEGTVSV
structure (smiles),measurement,setting,value
CN(C)C/C=C/C(=O)Nc1cccc(C(=O)Nc2ccc(Nc3nccc(-c4c(-c5ccccc5)nn5ccccc45)n3)cc2)c1,"kinase still bound, per cent of control",AAK1 (human); compound 1.0 µM,100%
same,"kinase still bound, per cent of control",SLK (human); compound 1.0 µM,18%
same,"kinase still bound, per cent of control",MYO3A (human); compound 1.0 µM,100%
same,"kinase still bound, per cent of control",[1]; compound 1.0 µM,100%
same,"kinase still bound, per cent of control",LRRK2 (human); compound 1.0 µM,72%
same,"kinase still bound, per cent of control",[2]; compound 1.0 µM,14%
same,"kinase still bound, per cent of control",MUSK (human); compound 1.0 µM,100%
same,"kinase still bound, per cent of control",MAPKAPK2 (human); compound 1.0 µM,84%
same,"kinase still bound, per cent of control",CAMK2A (human); compound 1.0 µM,100%
same,"kinase still bound, per cent of control",NEK9 (human); compound 1.0 µM,100%
same,"kinase still bound, per cent of control",MAPK9 (human); compound 1.0 µM,0%
same,"kinase still bound, per cent of control",[3]; compound 1.0 µM,4%
same,"kinase still bound, per cent of control",CSNK2A2 (human); compound 1.0 µM,100%
same,"kinase still bound, per cent of control",DMPK (human); compound 1.0 µM,59%
same,Kd,CDC42BPG (human),18 nM
same,"kinase still bound, per cent of control",CDC42BPG (human); compound 1.0 µM,0.25%
same,"kinase still bound, per cent of control",ICK (human); compound 1.0 µM,100%
same,"kinase still bound, per cent of control",MAPK1 (human); compound 1.0 µM,100%
same,"kinase still bound, per cent of control",[4]; compound 1.0 µM,100%
same,"kinase still bound, per cent of control",CLK2 (human); compound 1.0 µM,90%
same,"kinase still bound, per cent of control",RPS6KA3 KD1 (human); compound 1.0 µM,50%
same,"kinase still bound, per cent of control",FYN (human); compound 1.0 µM,49%
same,"kinase still bound, per cent of control",MAP3K2 (human); compound 1.0 µM,52%
same,"kinase still bound, per cent of control",STK16 (human); compound 1.0 µM,37%
same,"kinase still bound, per cent of control",PIP5K1A (human); compound 1.0 µM,67%
same,"kinase still bound, per cent of control",ACVRL1 (human); compound 1.0 µM,22%
same,"kinase still bound, per cent of control",MAP3K3 (human); compound 1.0 µM,68%
same,"kinase still bound, per cent of control",CAMK2D (human); compound 1.0 µM,100%
same,"kinase still bound, per cent of control",CAMKK1 (human); compound 1.0 µM,100%
same,"kinase still bound, per cent of control",STK3 (human); compound 1.0 µM,99%
same,"kinase still bound, per cent of control",NLK (human); compound 1.0 µM,12%
same,"kinase still bound, per cent of control",MYLK (human); compound 1.0 µM,77%
same,"kinase still bound, per cent of control",TNIK (human); compound 1.0 µM,27%
same,"kinase still bound, per cent of control",BRSK2 (human); compound 1.0 µM,100%
same,"kinase still bound, per cent of control",LCK (human); compound 1.0 µM,8.6%
same,"kinase still bound, per cent of control",CSNK2A1 (human); compound 1.0 µM,74%
same,"kinase still bound, per cent of control",EPHB4 (human); compound 1.0 µM,43%
same,"kinase still bound, per cent of control",PDPK1 (human); compound 1.0 µM,100%
same,"kinase still bound, per cent of control",EPHB3 (human); compound 1.0 µM,86%
same,"kinase still bound, per cent of control",FER (human); compound 1.0 µM,87%
same,"kinase still bound, per cent of control",TBK1 (human); compound 1.0 µM,100%
same,"kinase still bound, per cent of control",GRK4 (human); compound 1.0 µM,93%
same,"kinase still bound, per cent of control",[5]; compound 1.0 µM,49%
Cc1ccc(NC(=O)c2ccc(NC(=O)/C=C/CN(C)C)cc2)cc1Nc1nccc(-c2cccnc2)n1,"kinase still bound, per cent of control",AAK1 (human); compound 10.0 µM,63%
same,"kinase still bound, per cent of control",SLK (human); compound 10.0 µM,100%
same,"kinase still bound, per cent of control",MYO3A (human); compound 10.0 µM,100%
same,"kinase still bound, per cent of control",[1]; compound 10.0 µM,100%
same,"kinase still bound, per cent of control",LRRK2 (human); compound 10.0 µM,41%
same,"kinase still bound, per cent of control",[2]; compound 10.0 µM,47%
same,"kinase still bound, per cent of control",MUSK (human); compound 10.0 µM,99%
same,"kinase still bound, per cent of control",MAPKAPK2 (human); compound 10.0 µM,100%
same,"kinase still bound, per cent of control",CAMK2A (human); compound 10.0 µM,93%
same,"kinase still bound, per cent of control",NEK9 (human); compound 10.0 µM,100%
same,Kd,MAPK9 (human),160 nM
same,"kinase still bound, per cent of control",MAPK9 (human); compound 10.0 µM,1.1%
same,"kinase still bound, per cent of control",[3]; compound 10.0 µM,18%
same,"kinase still bound, per cent of control",CSNK2A2 (human); compound 10.0 µM,21%
same,"kinase still bound, per cent of control",DMPK (human); compound 10.0 µM,100%
same,"kinase still bound, per cent of control",CDC42BPG (human); compound 10.0 µM,86%
same,"kinase still bound, per cent of control",ICK (human); compound 10.0 µM,82%
same,"kinase still bound, per cent of control",MAPK1 (human); compound 10.0 µM,82%
same,"kinase still bound, per cent of control",[4]; compound 10.0 µM,39%
same,"kinase still bound, per cent of control",CLK2 (human); compound 10.0 µM,100%
same,"kinase still bound, per cent of control",RPS6KA3 KD1 (human); compound 10.0 µM,52%
same,"kinase still bound, per cent of control",FYN (human); compound 10.0 µM,95%
same,"kinase still bound, per cent of control",MAP3K2 (human); compound 10.0 µM,84%
same,"kinase still bound, per cent of control",STK16 (human); compound 10.0 µM,34%
same,"kinase still bound, per cent of control",PIP5K1A (human); compound 10.0 µM,8%
same,"kinase still bound, per cent of control",ACVRL1 (human); compound 10.0 µM,100%
same,"kinase still bound, per cent of control",MAP3K3 (human); compound 10.0 µM,81%
same,"kinase still bound, per cent of control",CAMK2D (human); compound 10.0 µM,100%
same,"kinase still bound, per cent of control",CAMKK1 (human); compound 10.0 µM,99%
same,"kinase still bound, per cent of control",STK3 (human); compound 10.0 µM,100%
same,"kinase still bound, per cent of control",NLK (human); compound 10.0 µM,100%
same,"kinase still bound, per cent of control",MYLK (human); compound 10.0 µM,73%
same,"kinase still bound, per cent of control",TNIK (human); compound 10.0 µM,43%
same,"kinase still bound, per cent of control",BRSK2 (human); compound 10.0 µM,88%
same,"kinase still bound, per cent of control",LCK (human); compound 10.0 µM,54%
same,"kinase still bound, per cent of control",CSNK2A1 (human); compound 10.0 µM,11%
same,"kinase still bound, per cent of control",EPHB4 (human); compound 10.0 µM,100%
same,"kinase still bound, per cent of control",PDPK1 (human); compound 10.0 µM,100%
same,"kinase still bound, per cent of control",EPHB3 (human); compound 10.0 µM,100%
same,"kinase still bound, per cent of control",FER (human); compound 10.0 µM,90%
same,"kinase still bound, per cent of control",TBK1 (human); compound 10.0 µM,64%
same,"kinase still bound, per cent of control",GRK4 (human); compound 10.0 µM,88%
same,"kinase still bound, per cent of control",[5]; compound 10.0 µM,3.4%
CN(C)C/C=C/C(=O)Nc1cccc(C(=O)Nc2ccc(Nc3nccc(/C(C#N)=C4\Nc5ccccc5S4)n3)cc2)c1,"kinase still bound, per cent of control",AAK1 (human); compound 1.0 µM,100%
same,"kinase still bound, per cent of control",SLK (human); compound 1.0 µM,8.6%
same,"kinase still bound, per cent of control",MYO3A (human); compound 1.0 µM,100%
same,"kinase still bound, per cent of control",[1]; compound 1.0 µM,100%
same,"kinase still bound, per cent of control",LRRK2 (human); compound 1.0 µM,57%
same,"kinase still bound, per cent of control",[2]; compound 1.0 µM,69%
same,"kinase still bound, per cent of control",MUSK (human); compound 1.0 µM,70%
same,"kinase still bound, per cent of control",MAPKAPK2 (human); compound 1.0 µM,92%
same,"kinase still bound, per cent of control",CAMK2A (human); compound 1.0 µM,100%
same,"kinase still bound, per cent of control",NEK9 (human); compound 1.0 µM,100%
same,"kinase still bound, per cent of control",MAPK9 (human); compound 1.0 µM,0.05%
same,Kd,[3],160 nM
same,"kinase still bound, per cent of control",[3]; compound 1.0 µM,6.6%
same,"kinase still bound, per cent of control",CSNK2A2 (human); compound 1.0 µM,8%
same,"kinase still bound, per cent of control",DMPK (human); compound 1.0 µM,78%
same,"kinase still bound, per cent of control",CDC42BPG (human); compound 1.0 µM,88%
same,"kinase still bound, per cent of control",ICK (human); compound 1.0 µM,100%
same,"kinase still bound, per cent of control",MAPK1 (human); compound 1.0 µM,100%
same,"kinase still bound, per cent of control",[4]; compound 1.0 µM,100%
same,"kinase still bound, per cent of control",CLK2 (human); compound 1.0 µM,100%
same,"kinase still bound, per cent of control",RPS6KA3 KD1 (human); compound 1.0 µM,87%
same,"kinase still bound, per cent of control",FYN (human); compound 1.0 µM,95%
same,"kinase still bound, per cent of control",MAP3K2 (human); compound 1.0 µM,100%
same,"kinase still bound, per cent of control",STK16 (human); compound 1.0 µM,100%
same,"kinase still bound, per cent of control",PIP5K1A (human); compound 1.0 µM,39%
same,"kinase still bound, per cent of control",ACVRL1 (human); compound 1.0 µM,100%
same,"kinase still bound, per cent of control",MAP3K3 (human); compound 1.0 µM,100%
same,"kinase still bound, per cent of control",CAMK2D (human); compound 1.0 µM,100%
same,"kinase still bound, per cent of control",CAMKK1 (human); compound 1.0 µM,100%
same,"kinase still bound, per cent of control",STK3 (human); compound 1.0 µM,91%
same,"kinase still bound, per cent of control",NLK (human); compound 1.0 µM,100%
same,"kinase still bound, per cent of control",MYLK (human); compound 1.0 µM,100%
same,"kinase still bound, per cent of control",TNIK (human); compound 1.0 µM,100%
same,"kinase still bound, per cent of control",BRSK2 (human); compound 1.0 µM,100%
same,"kinase still bound, per cent of control",LCK (human); compound 1.0 µM,100%
same,"kinase still bound, per cent of control",CSNK2A1 (human); compound 1.0 µM,27%
same,"kinase still bound, per cent of control",EPHB4 (human); compound 1.0 µM,100%
same,"kinase still bound, per cent of control",PDPK1 (human); compound 1.0 µM,100%
same,"kinase still bound, per cent of control",EPHB3 (human); compound 1.0 µM,95%
same,"kinase still bound, per cent of control",FER (human); compound 1.0 µM,82%
same,"kinase still bound, per cent of control",TBK1 (human); compound 1.0 µM,100%
same,"kinase still bound, per cent of control",GRK4 (human); compound 1.0 µM,78%
same,"kinase still bound, per cent of control",[5]; compound 1.0 µM,100%
